“Also recorded” adds a separate entry of the source. Read-outs that look alike come from different tables or passages of the source. Bounds are passed on as bounds.

The target in data set [1] is T1, P2Y receptor (turkey erythrocyte membranes) (Meleagris gallopavo, UniProt P49652).
T1 construct: from tissue; host or cells: washed turkey erythrocytes, ghosts prepared by hypotonic lysis
The experiment in a line: Stimulation of phospholipase C (inositol phosphate formation) in turkey erythrocyte membranes. It counts as biochemical. In short, it runs like this: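 Erythrocytes were labelled 18-24 h at 37 °C with [3H]myoinositol, and ghosts were made by hypotonic lysis. Ghosts (≈175 μg protein) were incubated 5 min at 30 °C in Hepes buffer pH 7.0 with 1 μM GTPγS and nucleotide analogs. Total [3H]inositol phosphates were purified by anion exchange; K0.5 averaged from 3-8 dose-response curves.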

The test system of data set [2] is P2Y receptor (aorta endothelium). The experiment in a line: Relaxation of noradrenalin-contracted rabbit aorta. Particulars: rabbit aorta; log molar units.
Protocol: (§1) In FIG. 14, the x-axis is also marked in units of the negative log of the molar concentration of applied putative P2Y receptor agonists and the y-axis is marked in units of the percentage relaxation of the 1 μM noradrenalin-induced contraction of rabbit aorta endothelium. In FIGS. 15-16, the x-axis is marked in units of the negative log of the molar concentration of applied putative p^2X receptor agonists and the y-axis is marked in units of the percentage contraction relative to a standard dose of KCl (i.e., 60 mM), as assessed in guinea pig isolated urinary bladder detrussor muscle (FIG. 15) and guinea pig isolated vas deferens (FIG. 16).
The target of data set [3] is P2Y receptor (mesenteric artery). The experiment in a line: Relaxation of rabbit mesenteric artery. Particulars: log molar units.
In data set [4] the target is T2, adenylyl cyclase linked P2Y receptor (C6 rat glioma cells) (Rattus norvegicus, UniProt Q9EPX4).
T2 construct: endogenous in cells; host or cells: C6 rat glioma cells
The data set is described as follows: Inhibition of adenylyl cyclase in C6 rat glioma cells. Format: cell-based. An outline of the steps:
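C6 cells labelled 2 h with [3H]adenine, preincubated 10 min at 37 °C in HEPES-buffered Eagle's medium (pH 7.5) with 200 μM IBMX. Stimulated 10 min with 10 μM isoproterenol plus varied nucleotide concentrations. Stopped with ice-cold 5% trichloroacetic acid.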

In data set [5] the target is T3, P2Y receptor (taenia coli) (Cavia porcellus, UniProt P59902).
T3 construct: Relaxant responses mediated via P2Y receptors were examined in guinea pig taenia coli; from tissue; host or cells: guinea pig taenia coli (carbachol-contracted)
The settings on record: cited from earlier work.

Data set [6] deals with T3, P2Y receptor (taenia coli). The data set is described as follows: Relaxation of carbachol-contracted guinea pig taenia coli. An outline of the steps:
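Guinea pig taenia coli precontracted with 50 nM carbachol; relaxation to applied P2Y agonists expressed as percentage relaxation against negative log molar agonist concentration.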

Another data set deals with nucleotidases. The settings on record: Zimmet et al.; Jacobson et al.; cited from earlier work.
Data set [7] has as its system P2Y receptors. The settings on record: literature; cited from earlier work.
For another data set, the system named is P2U receptors. The settings on record: literature; cited from earlier work.
Data set [8] deals with T4, P2X receptor (saphenous artery) (Oryctolagus cuniculus, UniProt G1U3D6).
T4 construct: and rabbit saphenous artery; from tissue; host or cells: rabbit saphenous artery
T4 sequence (G1U3D6 1-399): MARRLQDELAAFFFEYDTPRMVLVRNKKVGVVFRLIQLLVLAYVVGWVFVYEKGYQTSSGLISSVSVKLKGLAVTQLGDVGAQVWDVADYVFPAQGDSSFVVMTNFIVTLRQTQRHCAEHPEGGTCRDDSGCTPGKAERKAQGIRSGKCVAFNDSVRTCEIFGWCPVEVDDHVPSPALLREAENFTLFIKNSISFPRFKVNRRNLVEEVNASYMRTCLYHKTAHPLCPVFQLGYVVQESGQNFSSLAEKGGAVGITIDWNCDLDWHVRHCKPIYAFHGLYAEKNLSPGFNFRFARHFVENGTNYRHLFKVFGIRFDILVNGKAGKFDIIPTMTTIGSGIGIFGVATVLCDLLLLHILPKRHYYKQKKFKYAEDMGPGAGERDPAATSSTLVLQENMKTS
The experiment in a line: Contraction of rabbit saphenous artery. The settings on record: for activity/potency in words, saphenous artery: rabbit saphenous artery. An outline of the steps: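 Contraction of isolated rabbit saphenous artery, standard organ-bath methods; responses at 10 μM expressed as percentage of contraction produced by 1 μM α,MeATP. Highest analogue concentrations tested were 3-30 […].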

Data set [9] deals with T5, P2X receptor (vas deferens) (Cavia porcellus, UniProt A0A286XVA9).
T5 sequence (A0A286XVA9 1-399): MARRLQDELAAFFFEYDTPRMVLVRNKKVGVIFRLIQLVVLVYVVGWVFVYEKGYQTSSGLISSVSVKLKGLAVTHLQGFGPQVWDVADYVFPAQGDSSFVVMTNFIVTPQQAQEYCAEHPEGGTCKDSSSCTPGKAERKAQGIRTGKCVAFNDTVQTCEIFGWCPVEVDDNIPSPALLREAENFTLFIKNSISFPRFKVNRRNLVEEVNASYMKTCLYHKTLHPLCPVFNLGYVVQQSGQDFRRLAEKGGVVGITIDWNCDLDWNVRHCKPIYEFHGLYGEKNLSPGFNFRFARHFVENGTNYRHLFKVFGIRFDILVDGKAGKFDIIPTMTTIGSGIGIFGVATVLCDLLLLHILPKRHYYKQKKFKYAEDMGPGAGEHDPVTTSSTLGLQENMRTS
The experiment in a line: Contraction of guinea pig isolated vas deferens.
Protocol: as §1

Data set [10] addresses T6, P2X receptor (urinary bladder) (Cavia porcellus, UniProt A0A286XVA9).
T6 construct: guinea pig isolated urinary bladder detrussor muscle; from tissue; host or cells: guinea pig isolated urinary bladder detrusor muscle
The data set is described as follows: Contraction of guinea pig isolated urinary bladder detrussor muscle. The settings on record: guinea pig urinary bladder.
Protocol: as §1

The subject of data set [11] is P2X and P2Y receptors. The experiment in a line: Overall activity in the seven P2X and P2Y preparations.
For another data set, the system named is P2X receptors. The data set is described as follows: Overall activity in P2X receptor systems.
In data set [12] the test system is P2Y receptors. The data set is described as follows: Overall activity in P2Y receptor systems. The method, then:
Phospholipase C activity: Stimulation of inositol phosphate formation by compounds of the present invention was measured in turkey erythrocyte membranes as described by Harden et al., supra and Boyer et al., supra. The K0.5 values were averaged from 3-8 independently determined dose-response curves for each compound. Briefly, one ml of washed turkey erythrocytes was incubated in inositol-free medium (DMEM; Gibco) with 0.5-1 mCi of 2-[^3 H]myoinositol (20 Ci/mmol; American Radiolabeled Chemicals Inc., St. Louis, Mo.)for 18-24 h in a humidified atmosphere of 95% air 5% CO2 at 37° C. Erythrocyte ghosts were prepared by rapid lysis in hypotonic buffer (5 mM sodium phosphate, pH 7.4, 5 mM MgCl2, 1 mM EGTA) as described by Boyer et al., supra. Phospholipase C activity was measured in 25 μl of [^3 H]inositol-labeled ghosts (≈175 μg of protein, 200-500,000 cpm/assay) in a medium containing 424 μM CaC12, 0.91 mM MgSO4, 2 mM EGTA, 115 mM KCl, 5 mM KH2 PO4, and 10 mM Hepes, pH 7.0. Assay (100 μl or 200 μl final volume) contained 1 μM GTPγS and the indicated concentrations of nucleotide analogs. Ghosts were incubated at 30° C. for 5 min, and total [^3 H]inositol phosphates were quantitated after purification by anion exchange chromatography according to Harden et al. (supra) and Boyer et al. (supra).
Muscular relaxation/contraction: Relaxant responses mediated via P2Y receptors were examined in guinea pig taenia coli, rabbit aorta, and rabbit mesenteric artery, as described by Hoyle et al. (Br. J. Pharmacol., 107, 367-374 (1992a)), Burnstock et al., (Br. J. Pharmacol., 90, 383-391 (1987a)), and Rubino et al., (Eur. J. Pharmacol., 212, 237-240 (1992)). Contractile responses mediated via P2X receptors were examined in the guinea pig urinary bladder and vas deferens, and rabbit saphenous artery, also using standard methods (see Hoyle et al., supra., 1992; Hoyle et al., Br. J. Pharmacol., 99, 617-621 (1990); and Burnstock et al., Br. J. Pharmacol., 90, 111-120 (1987b)).

Data set [13] relates to P2X and P2Y receptors. Particulars: Satchell and Maguire; cited from earlier work.
The target of data set [14] is T5, P2X receptor (vas deferens). The settings on record: guinea pig vas deferens; log molar units; footnote e: literature data; cited from earlier work.
Where [15] appears, read: turkey erythrocyte membranes, mean ± S.E.M. for at least 2 determinations, read-out: phosphatidyl inositol metabolism (K0.5, nM) erythrocyte.
Setting [16] is: turkey erythrocyte membranes, read-out: K0.5.
Where [17] appears, read: listed as 3'-benzylamino-3'-deoxy-ATP.
Setting [18] is: listed as 3'-benzylamino-3'-deoxyATP.
The mark [19] stands for this setting: listed as 3'-Benzylamino-3'-deoxy-ATP.

T1 sequence (P49652 whole entry): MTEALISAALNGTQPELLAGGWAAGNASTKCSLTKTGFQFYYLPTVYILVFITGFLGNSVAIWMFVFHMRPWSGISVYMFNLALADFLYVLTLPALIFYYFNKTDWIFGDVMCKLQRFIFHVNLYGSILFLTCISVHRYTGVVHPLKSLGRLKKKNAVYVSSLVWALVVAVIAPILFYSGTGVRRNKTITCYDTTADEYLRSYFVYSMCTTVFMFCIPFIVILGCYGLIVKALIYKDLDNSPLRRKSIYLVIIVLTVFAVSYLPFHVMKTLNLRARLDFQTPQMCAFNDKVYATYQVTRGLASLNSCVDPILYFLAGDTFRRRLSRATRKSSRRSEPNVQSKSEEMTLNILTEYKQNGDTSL
T3 sequence (P59902 whole entry): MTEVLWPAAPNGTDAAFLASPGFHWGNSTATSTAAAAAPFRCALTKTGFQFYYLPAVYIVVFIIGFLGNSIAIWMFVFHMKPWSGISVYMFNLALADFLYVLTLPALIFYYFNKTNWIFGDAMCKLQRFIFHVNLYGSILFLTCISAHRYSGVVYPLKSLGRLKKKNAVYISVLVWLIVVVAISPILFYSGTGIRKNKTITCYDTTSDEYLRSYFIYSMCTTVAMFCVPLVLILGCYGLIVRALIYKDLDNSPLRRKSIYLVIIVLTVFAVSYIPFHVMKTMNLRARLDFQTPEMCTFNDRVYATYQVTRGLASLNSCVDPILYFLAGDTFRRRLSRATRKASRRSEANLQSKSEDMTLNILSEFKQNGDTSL
T2 sequence (Q9EPX4 whole entry): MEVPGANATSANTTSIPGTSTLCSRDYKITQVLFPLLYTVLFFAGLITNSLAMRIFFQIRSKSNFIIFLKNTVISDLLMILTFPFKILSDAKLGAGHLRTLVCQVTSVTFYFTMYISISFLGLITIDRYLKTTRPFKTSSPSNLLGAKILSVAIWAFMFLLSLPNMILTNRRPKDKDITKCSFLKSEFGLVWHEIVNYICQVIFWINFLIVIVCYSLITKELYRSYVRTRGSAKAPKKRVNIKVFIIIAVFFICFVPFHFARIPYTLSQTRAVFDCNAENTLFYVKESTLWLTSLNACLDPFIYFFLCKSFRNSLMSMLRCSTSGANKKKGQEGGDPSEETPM

Take `Nc1nc(Cl)nc2c1ncn2[C@@H]1O[C@H](COP(=O)(O)OP(=O)(O)OP(=O)(O)O)[C@@H](O)[C@H]1O` [2-Cl-ATP, 2-chloro-ATP, reference compound]: the results for the EC50 in [1] (setting [15]) and in data set [1] (setting [16]) were 72 ± 19 nM and 72 nM, respectively. Further, in data set [2], the “relaxation pD2, aorta” value came to 5.8. In addition, in data set [3], the “relaxation pD2, mes. artery” value was 6.2. Moreover, the “selectivity for the adenylyl cyclase linked receptor, in words” value in data set [4] (versus phospholipase C linked receptor) was “not observed”. Moreover, in data set [5] (guinea pig taenia coli, log molar units, footnote e: literature data), the “relaxation pD2, taenia coli” value is listed as 7.2.

With `CSc1nc(N)c2ncn([C@@H]3O[C@H](COP(=O)(O)OP(=O)(O)OP(=O)(O)O)[C@@H](O)[C@H]3O)c2n1` [2-MeS-ATP, 2-methylthio-ATP], the values for the EC50 in data set [1] (setting [15]), in data set [1] (setting [16]) and in [6] were 8 ± 2 nM, 8 nM and 10 nM, respectively. In [2], the “relaxation pD2, aorta” value worked out at 6.8. The “relaxation pD2, mes. artery” value in [3] was found to be 6.5. The “selectivity for the adenylyl cyclase linked (C6 cell) receptor” value in [4] (versus phospholipase C linked turkey erythrocyte receptor) is 7.3 -fold. Further, the “pD2, taenia coli, as reported by Hoyle et al.” value in data set [5] (guinea pig taenia coli) was 8.0±0.15. Also, in the data set on nucleotidases, the “stability to nucleotidases, in words” value is on record as “susceptible to ectonucleotidases”. Further, in the data set on P2Y receptors [7], the “P2Y receptor affinity/potency, in words” value was “high affinity for P2Y receptors; also recorded: One of the most potent known P2Y receptor agonists”. The “potency at P2U receptors, in words” value in the data set on P2U receptors is on record as “much less potent than ATP at P2U -receptors”.

`Nc1ncnc2c1ncn2[C@@H]1O[C@H](COP(=O)(O)OP(=O)(O)OP(=O)(O)O)[C@@H](NCc2ccccc2)[C@H]1O` [3'-Benzylamino-3'-deoxyATP, 3'-N-Benzylamino-3'-deoxyadenosine 5'-triphosphate]: in data set [1] (setting [15]), the EC50 is over 100000 nM. Moreover, the results for the “activity/potency in words, saphenous artery” value in data set [8], in data set [8] (setting [17]) and in data set [8] (setting [18]) were “inactive”, “at best weak agonists in the saphenous artery” and “not rabbit saphenous artery P2X receptors”, respectively. Besides, the “activity/potency in words, vas deferens” value in [9] is “the most potent agonist at vas deferens P2X receptors”; in data set [9] (setting [19]), “substantially more potent than ATP”; in data set [9] (setting [17]) it was “potent agonists in the vas deferens and urinary bladder”; in [9] (setting [18]), “high potency”. Also, the “activity/potency in words, bladder” value in [10] was “highly potent at urinary bladder P2X receptors”; in [10] (setting [19]), “substantially more potent than ATP”; in [10] (setting [17]) it was “potent agonists in the vas deferens and urinary bladder”; in [10] (setting [18]) it was “high potency”. For the same molecule, in the data set with P2X and P2Y receptors [11], the “overall activity in words, all preparations” value is “active only in the vas deferens and urinary bladder”. Further, the “overall activity in words, P2X systems” value in the data set on P2X receptors is “specificity for P2X receptors”. Besides, the “overall activity in words, P2Y systems” value with P2Y receptors [12] is “either inactive or only a weak agonist in P2Y -systems”; in the data set with P2Y receptors [12] (listed as 3'-benzylamino-3'deoxyATP) it was “inactive in the P2Y receptor systems”.

For the molecule `Nc1ncnc2c1nc(Br)n2[C@@H]1O[C@H](COP(=O)(O)OP(=O)(O)OP(=O)(O)O)[C@@H](O)[C@H]1O` [8-Br-ATP, 8-Bromoadenosine 5'-triphosphate], in [1] (setting [15]), the EC50 came to 47400 nM. Besides, the “activity/potency in words, vas deferens” value in [9] was “inactive in the vas deferens”. Besides, the “activity/potency in words, bladder” value in data set [10] is listed as “limited activity in the urinary bladder”. Further, the “overall activity in words, all preparations” value with P2X and P2Y receptors [11] is recorded as “relatively ineffective at the receptors tested in this study”. In the data set with P2X and P2Y receptors [13], the “activity at P2 receptors, in words” value is “somewhat active at P2 receptors”.

As for `Nc1ncnc2c1ncn2[C@@H]1O[C@H](COP(=O)(O)OP(=O)(O)OP(=O)(O)O)[C@@H](O)[C@H]1O` [ATP, adenosine-5'-triphosphate, reference compound], the EC50 was 10000 nM in [1] (K0.5, turkey erythrocyte membranes, read from graph); 2800 ± 700 nM in [1] (setting [15]); 631 nM in [6]; 1.78 mM in [8]. Moreover, the “relaxation pD2, taenia coli” value in [6] (guinea pig taenia coli, log molar units) was 6.2 ± 0.08. Also, the “relaxation pD2, aorta” value in data set [2] amounted to 4.5. In addition, in data set [3], the “relaxation pD2, mes. artery” value turned out to be 6.0. In addition, the activation at 10 µM in data set [8] (read-out: response at 10 μM relative to the contraction produced by 1 μM α,MeATP, saph. artery) worked out at 5%. Moreover, in data set [14], the “contraction pD2, vas” value is recorded as 3.5.

For `Nc1ncnc2c1ncn2[C@@H]1O[C@H](COP(O)(=S)OP(=O)(O)OP(=O)(O)O)[C@@H](O)[C@H]1O` (stereo partly drawn) [ATP-α-S (S-isomer), reference compound], the EC50 in data set [1] (phosphatidyl inositol metabolism (K0.5, nM) erythrocyte, turkey erythrocyte membranes, mean ± S.E.M. for at least 2 determinations) was determined as 8930 ± 4440 nM. For the same molecule, the “fold less potent than ATP, turkey erythrocyte” value in data set [1] (relative to ATP) was 2 -fold. Also, in data set [3], the “relaxation pD2, mes. artery” value was 6.6. Moreover, the “fold more potent than ATP, taenia coli” value in data set [5] (relative to ATP, see Burnstock et al. 1984) was “approximately 10 -fold”.
